Target: T1, androgen receptor (AR) (Homo sapiens, UniProt P10275)
T1 sequence (P10275 1-920): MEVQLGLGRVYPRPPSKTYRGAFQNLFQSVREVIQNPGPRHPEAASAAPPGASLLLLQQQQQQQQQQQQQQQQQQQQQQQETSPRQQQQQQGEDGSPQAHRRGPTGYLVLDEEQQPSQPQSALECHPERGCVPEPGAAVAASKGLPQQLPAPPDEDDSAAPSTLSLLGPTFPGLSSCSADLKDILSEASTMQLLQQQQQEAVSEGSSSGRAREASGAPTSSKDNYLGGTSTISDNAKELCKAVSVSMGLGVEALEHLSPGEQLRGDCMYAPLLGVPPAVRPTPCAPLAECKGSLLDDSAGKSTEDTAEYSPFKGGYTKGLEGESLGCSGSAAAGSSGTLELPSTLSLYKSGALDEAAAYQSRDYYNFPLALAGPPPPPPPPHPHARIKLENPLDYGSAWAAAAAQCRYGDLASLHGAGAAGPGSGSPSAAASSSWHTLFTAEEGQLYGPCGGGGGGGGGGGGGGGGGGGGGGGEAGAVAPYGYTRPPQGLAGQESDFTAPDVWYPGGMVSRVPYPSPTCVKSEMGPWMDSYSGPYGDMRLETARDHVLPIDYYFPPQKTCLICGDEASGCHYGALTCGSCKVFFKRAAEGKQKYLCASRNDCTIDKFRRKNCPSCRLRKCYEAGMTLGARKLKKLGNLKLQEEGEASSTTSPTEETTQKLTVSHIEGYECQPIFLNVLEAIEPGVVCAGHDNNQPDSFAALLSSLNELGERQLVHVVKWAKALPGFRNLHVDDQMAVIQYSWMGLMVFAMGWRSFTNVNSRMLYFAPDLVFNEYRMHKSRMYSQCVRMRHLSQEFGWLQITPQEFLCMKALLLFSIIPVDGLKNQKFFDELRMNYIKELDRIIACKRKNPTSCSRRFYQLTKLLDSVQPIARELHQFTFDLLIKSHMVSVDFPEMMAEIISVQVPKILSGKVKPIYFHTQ
Test: Degradation of androgen receptor (AR) protein in VCaP cells by ELISA
Assay type: cell-based
Settings: AR degradation, VCaP cells, 16 h, ELISA, Table 3-1; for DC50: read-out: DC50; for Dmax: VCaP, read-out: Dmax (%)

Row | Dmax [%] | SMILES | DC50 [nM] | Dmax (%)
1 | – | CC1(C)[C@H](Oc2ccc(C#N)c(Cl)c2)C(C)(C)[C@H]1N1Cc2nc(C#CC3CC(N4CC5CN(c6ccc7c(c6)C(=O)N(C6CCC(=O)NC6=O)C7=O)CC5C4)C3)ccc2C1=O (stereo partly shown) [Compound 359, 2-Chloro-4-((1r,3r)-3-(2-((3-(5-(2-(2,6-dioxopiperidin-3-yl)-1,3-dioxoisoindolin-5-yl)hexahydropyrrolo[3,4-c]pyrrol-2(1H)-yl)cyclobutyl)ethynyl)-5-oxo-5,7-dihydro-6H-pyrrolo[3,4-b]pyridin-6-yl)-2,2,4,4-tetramethylcyclobutoxy)benzonitrile] | 10 to 100 | –
2 | 60 to 80 | CC1(C)[C@H](Oc2ccc(C#N)c(Cl)c2)C(C)(C)[C@H]1N1Cc2nc(C#CC3CC(N4CC5CN(c6cc7c(cc6F)C(=O)N(C6CCC(=O)NC6=O)C7=O)CC5C4)C3)ccc2C1=O (stereo partly shown) [Compound 360] | 10 to 100 | –
3 | – | CC1(C)[C@H](Oc2ccc(C#N)c(Cl)c2)C(C)(C)[C@H]1N1Cc2nc(C#CC3CC(N4CC5CN(c6cc7c(cc6F)C(=O)N(C6CCC(=O)NC6=O)C7=O)CC5C4)C3)ccc2C1=O (stereo partly shown) [Compound 361, 2-Chloro-4-((1r,3r)-3-(2-((3-(5-(2,6-dioxopiperidin-3-yl)-6-fluoro-1,3-dioxoisoindolin-5-yl)hexahydropyrrolo[3,4-c]pyrrol-2(1H)-cyclobutyl)ethynyl)-5-oxo-5,7-dihydro-6H-pyrrolo[3,4-b]pyridin-6-yl)-2,2,4,4-tetramethylcyclobutoxy) benzonitrile] | 10 to 100 | –
4 | > 80 | CC1(C)[C@H](Oc2ccc(C#N)c(Cl)c2)C(C)(C)[C@H]1N1Cc2nc(C#CC3CCC(N4CCC5(CC4)CN(c4ccc6c(c4)C(=O)N(C4CCC(=O)NC4=O)C6=O)C5)CC3)ccc2C1=O (stereo partly shown) [Compound 362] | < 10 | –
5 | 60 to 80 | CC1(C)[C@H](Oc2ccc(C#N)c(Cl)c2)C(C)(C)[C@H]1N1Cc2nc(C#CC3CCC(N4CCC5(CC4)CN(c4cc6c(cc4F)C(=O)N(C4CCC(=O)NC4=O)C6=O)C5)CC3)ccc2C1=O (stereo partly shown) [Compound 363] | 10 to 100 | –
6 | – | CC1(C)[C@H](Oc2ccc(C#N)c(Cl)c2)C(C)(C)[C@H]1N1Cc2nc(C#CC3CCC(N4CCC5(CCN(c6ccc7c(c6)C(=O)N(C6CCC(=O)NC6=O)C7=O)C5)C4)CC3)ccc2C1=O (stereo partly shown) [Compound 365, 2-Chloro-4-((1r,3r)-3-(2-((4-(7-(2-(2,6-dioxopiperidin-3-yl)-1,3-dioxoisoindolin-5-yl)-2,7-Diazaspiro[4.4]nonan-2-yl)cyclohexyl)ethynyl)-5-oxo-5,7-dihydro-6H-pyrrolo[3,4-b]pyridin-6-yl)-2,2,4,4-tetramethylcyclobutoxy) benzonitrile] | 10 to 100 | ++++ (>80%)
7 | – | CC1(C)[C@H](Oc2ccc(C#N)c(Cl)c2)C(C)(C)[C@H]1N1Cc2nc(C#CC3CCC(N4CCC5(CCN(c6cc7c(cc6F)C(=O)N(C6CCC(=O)NC6=O)C7=O)C5)C4)CC3)ccc2C1=O (stereo partly shown) [Compound 366, 2-Chloro-4-((1r,3r)-3-(2-((4-(7-(2-(2,6-dioxopiperidin-3-yl)-6-fluoro-1,3-dioxoisoindolin-5-yl)-2,7-diazaspiro[4.4]nonan-2-yl)cyclohexyl)ethynyl)-5-oxo-5,7-dihydro-6H-pyrrolo[3,4-b]pyridin-6-yl)-2,2,4,4-tetramethylcyclobutoxy) benzonitrile] | < 10 | ++++ (>80%)
8 | – | CC1(C)[C@H](Oc2ccc(C#N)c(Cl)c2)C(C)(C)[C@H]1N1Cc2nc(C#CC3CCC(N4CCC5(CCN(c6cc7c(cc6F)C(=O)N(C6CCC(=O)NC6=O)C7=O)C5)C4)CC3)ccc2C1=O (stereo partly shown) [Compound 367, 2-Chloro-4-((1r,3r)-3-(2-((4-(7-(2-(2,6-dioxopiperidin-3-yl)-6-fluoro-1,3-dioxoisoindolin-5-yl)-2,7-diazaspiro[4.4]nonan-2-yl)cyclohexyl)ethynyl)-5-oxo-5,7-dihydro-6H-pyrrolo[3,4-b]pyridin-6-yl)-2,2,4,4-tetramethylcyclobutoxy) benzonitrile] | 100 to 300 | ++ (60%-40%)
9 | – | CC1(C)[C@H](Oc2ccc(C#N)c(Cl)c2)C(C)(C)[C@H]1N1Cc2nc(C#CC3CCC(N4CC5(CCN(c6ccc7c(c6)C(=O)N(C6CCC(=O)NC6=O)C7=O)C5)C4)CC3)ccc2C1=O (stereo partly shown) [Compound 369, 2-Chloro-4-((1r,3r)-3-(2-((4-(6-(2-(2,6-dioxopiperidin-3-yl)-1,3-dioxoisoindolin-5-yl)-2,6-diazaspiro[3.4]octane-2-yl)cyclohexyl)ethynyl)-5-oxo-5,7-dihydro-pyrrolo[3,4-b]pyridin-6-yl)-2,2,4,4-tetramethylcyclobutoxy) benzonitrile] | 10 to 100 | +++ (80%-60%)
10 | – | CC1(C)[C@H](Oc2ccc(C#N)c(Cl)c2)C(C)(C)[C@H]1N1Cc2nc(C#CC3CCC(N4CC5(CCN(c6cc7c(cc6F)C(=O)N(C6CCC(=O)NC6=O)C7=O)C5)C4)CC3)ccc2C1=O (stereo partly shown) [Compound 370] | 100 to 300 | ++ (60%-40%)
11 | – | CC1(C)[C@H](Oc2ccc(C#N)c(Cl)c2)C(C)(C)[C@H]1N1Cc2nc(C#CC3CCC(N4CC5(CCN(c6cc7c(cc6F)C(=O)N(C6CCC(=O)NC6=O)C7=O)C5)C4)CC3)ccc2C1=O (stereo partly shown) [Compound 371] | 10 to 100 | ++++ (>80%)
12 | < 40 | CC1(C)[C@H](Oc2ccc(C#N)c(Cl)c2)C(C)(C)[C@H]1N1Cc2nc(C#CC3CCC(N4CCC5(CN(c6ccc7c(c6)C(=O)N(C6CCC(=O)NC6=O)C7=O)C5)C4)CC3)ccc2C1=O (stereo partly shown) [Compound 372] | > 300 | –
13 | – | CC1(C)[C@H](Oc2ccc(C#N)c(Cl)c2)C(C)(C)[C@H]1N1Cc2nc(C#CC3CCC(N4CCC5(CN(c6ccc7c(c6)C(=O)N(C6CCC(=O)NC6=O)C7=O)C5)C4)CC3)ccc2C1=O (stereo partly shown) [Compound 373] | > 300 | –
14 | > 80 | CC1(C)[C@H](Oc2ccc(C#N)c(Cl)c2)C(C)(C)[C@H]1N1Cc2nc(C#CC3CCC(N4CCC5(CN(c6cc7c(cc6F)C(=O)N(C6CCC(=O)NC6=O)C7=O)C5)C4)CC3)ccc2C1=O (stereo partly shown) [Compound 374] | < 10 | –
15 | – | CC1(C)[C@H](Oc2ccc(C#N)c(Cl)c2)C(C)(C)[C@H]1N1Cc2nc(C#CC3CCC(N4CCC5(CN(c6cc7c(cc6F)C(=O)N(C6CCC(=O)NC6=O)C7=O)C5)C4)CC3)ccc2C1=O (stereo partly shown) [Compound 375] | < 10 | –
16 | – | CC1(C)[C@H](Oc2ccc(C#N)c(Cl)c2)C(C)(C)[C@H]1N1Cc2nc(C#CC3CCC(N4CC5(CCN(c6ccc7c(c6)C(=O)N(C6CCC(=O)NC6=O)C7=O)CC5)C4)CC3)ccc2C1=O (stereo partly shown) [Compound 376, 2-Chloro-4-((1r,3r)-3-(2-((4-(7-(2-(2,6-dioxopiperidin-3-yl)-1,3-dioxoisoindolin-5-yl)-2,7-diazaspiro[3.5]nonan-2-yl)cyclohexyl)ethynyl)-S-oxo-5,7-dihydro-pyrrolo[3,4-b]pyridin-6-yl)-2,2,4,4-tetramethylcyclobutoxy) benzonitrile] | > 300 | ++ (60%-40%)
17 | – | CC1(C)[C@H](Oc2ccc(C#N)c(Cl)c2)C(C)(C)[C@H]1N1Cc2nc(C#CC3CCC(N4CC5(CCN(c6ccc7c(c6)C(=O)N(C6CCC(=O)NC6=O)C7=O)CC5)C4)CC3)ccc2C1=O (stereo partly shown) [Compound 377, 2-Chloro-4-((1r,3r)-3-(2-((4-(7-(2-(2,6-dioxopiperidin-3-yl)-1,3-dioxoisoindolin-5-yl)-2,7-diazaspiro[3.5]nonan-2-yl)cyclohexyl)ethynyl)-5-oxo-5,7-dihydro-pyrrolo[3,4-b]pyridin-6-yl)-2,2,4,4-tetramethylcyclobutoxy) benzonitrile] | < 10 | ++++ (>80%)

Row | SMILES | Dmax [%] | DC50 [nM] | Dmax (%)
18 | CC1(C)[C@H](Oc2ccc(C#N)c(Cl)c2)C(C)(C)[C@H]1N1Cc2nc(C#CC3CCC(N4CCC5(CCN(c6ccc7c(c6)C(=O)N(C6CCC(=O)NC6=O)C7=O)C5)C4)CC3)ccc2C1=O (stereo partly shown) [Compound 364, 2-Chloro-4-((1r,3r)-3-(2-((4-(7-(2-(2,6-dioxopiperidin-3-yl)-1,3-dioxoisoindolin-5-yl)-2,7-Diazaspiro[4.4]nonan-2-yl)cyclohexyl)ethynyl)-5-oxo-5,7-dihydro-6H-pyrrolo[3,4-b]pyridin-6-yl)-2,2,4,4-tetramethylcyclobutoxy) benzonitrile] | > 80 | < 10 | –
19 | CC1(C)[C@H](Oc2ccc(C#N)c(Cl)c2)C(C)(C)[C@H]1N1Cc2nc(C#CC3CCC(N4CC5(CCN(c6ccc7c(c6)C(=O)N(C6CCC(=O)NC6=O)C7=O)C5)C4)CC3)ccc2C1=O (stereo partly shown) [Compound 368, 2-Chloro-4-((1r,3r)-3-(2-((4-(6-(2-(2,6-dioxopiperidin-3-yl)-1,3-dioxoisoindolin-5-yl)-2,6-diazaspiro[3.4]octane-2-yl)cyclohexyl)ethynyl)-5-oxo-5,7-dihydro-pyrrolo[3,4-b]pyridin-6-yl)-2,2,4,4-tetramethylcyclobutoxy) benzonitrile] | 40 to 60 | 100 to 300 | –
